Tested on: psoriasis
Assay: Psoriasis, patients 32 and 33
Assay type: in vivo, human
Settings: patient 32; fluocinonide alone on other elbow
Source text: Patient 32 had suffered from psoriasis on their arms and elbows for over 10 years. A 10-30 Kd peat preparation was applied to one elbow twice daily for approximately nine months, with the occasional simultaneous application of fluocinonide cream. Fluocinonide cream alone was used on the other elbow.
Patient 33 had psoriasis that seemed to only manifest itself after an occurrence of strep throat. Their only successful treatment had been with chemotherapeutic agents.

`CC(=O)OCC(=O)[C@@]12OC(C)(C)O[C@@H]1C[C@H]1[C@@H]3C[C@H](F)C4=CC(=O)C=C[C@]4(C)[C@@]3(F)[C@@H](O)C[C@@]12C` [fluocinonide] was tested, and the “psoriasis of elbow, skin lesions” value was “no decrease in the skin lesions”.
